# Entries after “also recorded” stand apart in the source; their conditions may differ.
# Key:
# [1] = system: high fat diet induced C57BL/6J mice; assay: Fasting triglyceride, UP780 dose-range study; format: in vivo, mouse; conditions: after 7 weeks of daily oral treatment; GW1929 5 mg/kg
# Method: (§1) Once an induction of the disease on animals after 8 weeks of high fat diets was confirmed by monitoring of selected parameters, daily oral treatment was initiated. On each day, the test articles and the positive control GW1929 (Tocris Bioscience, Ellisville, Mo., Batch #2A/58705) were dissolved in 0.5% methylcellulose (Sigma, St. Louise Mo., Lot#116H0857) and delivered at an oral dose of 100, 200 and 400 mg/kg of UP780 (Lot # L1806QMAW-01); 400 mg/kg of Qmatrix® Aloe vera gel powder (QM400, Lot# G6319103-L3) as well as 5 mg/kg of GW1929. As GW1929 was not completely solublized in methylcellulose, it was first dissolved in DMSO (Sigma, St. Louis, Mo., Batch#064K0067). The final concentration of test compounds, including the vehicle, was then adjusted to contain 5% DMSO before drug administration. The carrier vehicle treated animals received 0.5% methylcellulose only. No detectable sign of irritation was observed after each drug or vehicle administration.
# (§2) As described on Example 12, male C57BL/6J mice were purchased from Jackson Laboratories (Bar Harbor, Me.) at 6 weeks of age. […]
# (§3) Fasting blood glucose, total cholesterol and triglyceride levels were measured using 15-20 μl of blood obtained from tail vein. […]
# [2] = system: db/db mice; assay: Weekly fasting glucose levels in db/db mice; format: in vivo, mouse; conditions: GW1929 5 mg/kg, N931 375 mg/kg
# Method: Fasting glucose levels of male db/db mice (8 mice in each group) treated with GW1929 (5 mg/kg), N931 (375 mg/kg) and vehicle were measured weekly. Animals were provided with T2018 rodent diet ad libitum except when fasting. Animals were fasted overnight before measurements were taken.
# [3] = system: high fat diet induced C57BL/6J mice; assay: Intraperitoneal insulin tolerance test, UP780 dose-range study; format: in vivo, mouse; conditions: after 10 weeks of daily oral treatment; P≦0.05
# Method: as §1, with “vehicle administration. […]” for “vehicle administration.”
# An intraperitoneal glucose tolerance test was conducted on day 0 (baseline), weeks 3, and 9 after onset of treatment. […] Blood glucose levels were determined at time 0 (before glucose injection), 30, 60, 90, and 120 minutes post glucose delivery. […] Blood glucose levels were determined at time 0 (before insulin injection), 30, 60, 90, and 120 minutes after insulin administration. […]
# [4] = system: high fat diet induced C57BL/6J mice; assay: Fasting blood glucose, UP780 dose-range study; format: in vivo, mouse; conditions: weeks 5 and 7; UP780 200 mg/kg, GW1929 5 mg/kg
# Method: as §1, §2, §3
# [5] = Body weight, UP780 dose-range study; format: in vivo, mouse; conditions: GW1929 5 mg/kg, Qmatrix 400 mg/kg, UP780 100, 200 and 400 mg/kg; weekly
# Method: as §1, §2
# Three or four male C57BL/6J mice were housed in a mouse cage that had sections for feed and water. Feed intake was determined daily by measuring the difference between previously weighed high fat pellets value and what was left on the given day. […]
# [6] = system: diabetic animal models; conditions: administered orally; Brown et al. (1999), Way et al. (2001); cited from earlier work
# [7] = system: db/db mice; assay: Weekly fasting triglyceride levels in db/db mice; format: in vivo, mouse; conditions: after 10 weeks of treatment, P<0.05
# Method: Weekly fasting triglyceride levels of male db/db mice treated with GW1929 (5 mg/kg), N-931 (375 mg/kg) and vehicle were taken for 10 weeks. Animals were provided with T2018 rodent diet ad libitum except when fasting. Animals were fasted overnight before measurements were taken. The values indicated are percent triglyceride levels of vehicle, n=8.
structure (smiles),measurement,setting,value
"CN(CCOc1ccc(C[C@H](Nc2ccccc2C(=O)c2ccccc2)C(=O)O)cc1)c1ccccn1 [GW1929, N-(2-Benzoylphenyl)-O-[2-(methyl-2-pyridinylamino)ethyl]-L-tyrosine]",percent reduction of fasting triglyceride level to vehicle,[1],22.7%
same,course of fasting glucose level during 10-week treatment,[2]; starting from week 5,maintain the glucose levels at the baseline level
same,fasting blood glucose levels compared to vehicle,"[2]; weeks 6, 7, 9 and 10, P<0.05",significantly lower
same,significant differences in intraperitoneal insulin tolerance test vs vehicle,[3],after 1 hour insulin injection
same,fasting glucose level compared to vehicle,[4],statistically significant lower fasting glucose level
same,body weight gain difference between groups,[5],no significant body weight gain or feed consumption differences; also recorded: No statistically significant body weight gain difference
same,"glucose, fatty acids and triglyceride levels",[6],"decreases glucose, fatty acids and triglyceride levels"
same,fasting triglyceride levels compared to vehicle,[7],significant reduction in triglyceride levels
same,reduction of triglycerides,"[7]; N931 375 mg/kg, GW1929 5 mg/kg",43%

# Source: patent publication US8852657B2, “Chromones as therapeutic agents” (Unigen, Inc., priority 2007, dated 2014)
